Assay results taken from ChEMBL document CHEMBL1128756, “The discovery of CP-96,021 and CP-96,486, balanced, combined, potent and orally active leukotriene D4 (LTD4)/platelet activating factor (PAF) receptor antagonists” (Bioorg Med Chem Lett, 1995).

Tests used:
[1] = target: T1, Cysteinyl leukotriene receptor 1 (Cavia porcellus, UniProt Q2NNR5); assay: Displacement of [3H]leukotriene D4 (LTD4) from receptor in guinea pig lung membranes; assay type: cell membranes, Membrane
T1 sequence (Q2NNR5 whole entry): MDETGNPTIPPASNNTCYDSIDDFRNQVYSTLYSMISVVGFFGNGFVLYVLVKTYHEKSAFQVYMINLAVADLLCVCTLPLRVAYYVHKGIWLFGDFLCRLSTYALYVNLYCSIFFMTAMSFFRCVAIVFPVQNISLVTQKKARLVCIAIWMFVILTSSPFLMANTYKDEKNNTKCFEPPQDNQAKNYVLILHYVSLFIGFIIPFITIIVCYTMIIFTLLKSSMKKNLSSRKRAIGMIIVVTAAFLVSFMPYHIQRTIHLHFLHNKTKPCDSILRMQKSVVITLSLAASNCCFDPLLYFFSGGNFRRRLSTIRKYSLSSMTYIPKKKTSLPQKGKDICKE

[2] = Inhibitory concentration against 5-hydroxytryptamine 1 receptor
[3] = target: Serotonin 2 (5-HT2) receptor (Homo sapiens, UniProt P41595+P28223+P28335); assay: Inhibitory concentration against 5-hydroxytryptamine 2 receptor; assay type: protein assay
Adenosine receptor A1 = target: T2, Adenosine receptor A1 (Homo sapiens, UniProt P30542); assay: Inhibitory concentration against Adenosine A1 receptor
T2 sequence (P30542 whole entry): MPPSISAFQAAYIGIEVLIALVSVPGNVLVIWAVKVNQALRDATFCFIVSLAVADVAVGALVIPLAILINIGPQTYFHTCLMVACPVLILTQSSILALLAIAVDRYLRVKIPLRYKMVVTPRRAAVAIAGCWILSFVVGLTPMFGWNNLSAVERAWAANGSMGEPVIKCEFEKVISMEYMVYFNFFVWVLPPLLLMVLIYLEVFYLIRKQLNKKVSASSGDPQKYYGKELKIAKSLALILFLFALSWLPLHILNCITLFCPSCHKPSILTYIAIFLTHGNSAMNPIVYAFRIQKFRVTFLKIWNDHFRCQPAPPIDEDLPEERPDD

[4] = target: T3, Adrenergic receptor alpha-1 (Homo sapiens, UniProt P35348+P25100+P35368); assay: Inhibitory concentration against Alpha-1 adrenergic receptor; assay type: protein assay
T3 sequence (P35348 whole entry): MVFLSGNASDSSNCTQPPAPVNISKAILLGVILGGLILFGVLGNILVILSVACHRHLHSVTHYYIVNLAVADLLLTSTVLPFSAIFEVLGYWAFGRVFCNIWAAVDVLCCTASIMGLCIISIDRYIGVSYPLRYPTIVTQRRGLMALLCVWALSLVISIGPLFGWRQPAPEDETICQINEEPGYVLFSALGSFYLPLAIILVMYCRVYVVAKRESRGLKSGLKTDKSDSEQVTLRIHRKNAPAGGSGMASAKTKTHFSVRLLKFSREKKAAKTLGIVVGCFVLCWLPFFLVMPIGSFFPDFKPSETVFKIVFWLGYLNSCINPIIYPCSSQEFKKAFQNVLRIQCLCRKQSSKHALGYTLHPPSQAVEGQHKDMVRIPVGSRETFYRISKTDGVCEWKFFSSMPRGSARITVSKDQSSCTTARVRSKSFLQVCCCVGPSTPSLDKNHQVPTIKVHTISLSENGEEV
T3 sequence (P25100 whole entry): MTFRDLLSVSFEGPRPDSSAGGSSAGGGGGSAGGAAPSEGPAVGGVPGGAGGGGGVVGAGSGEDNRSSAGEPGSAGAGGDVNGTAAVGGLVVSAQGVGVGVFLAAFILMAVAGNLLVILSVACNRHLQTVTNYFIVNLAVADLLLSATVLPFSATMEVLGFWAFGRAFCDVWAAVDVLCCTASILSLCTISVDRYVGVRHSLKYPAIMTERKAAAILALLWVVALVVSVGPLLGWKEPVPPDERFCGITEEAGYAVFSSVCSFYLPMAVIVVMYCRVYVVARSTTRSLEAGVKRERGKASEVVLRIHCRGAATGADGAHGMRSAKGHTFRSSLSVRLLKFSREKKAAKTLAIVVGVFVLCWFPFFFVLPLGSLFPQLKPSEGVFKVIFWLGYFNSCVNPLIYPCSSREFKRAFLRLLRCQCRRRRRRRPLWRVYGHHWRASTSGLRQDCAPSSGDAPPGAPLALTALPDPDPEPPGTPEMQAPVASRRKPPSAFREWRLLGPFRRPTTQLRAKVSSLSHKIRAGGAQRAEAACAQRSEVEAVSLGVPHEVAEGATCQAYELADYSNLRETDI
T3 sequence (P35368 whole entry): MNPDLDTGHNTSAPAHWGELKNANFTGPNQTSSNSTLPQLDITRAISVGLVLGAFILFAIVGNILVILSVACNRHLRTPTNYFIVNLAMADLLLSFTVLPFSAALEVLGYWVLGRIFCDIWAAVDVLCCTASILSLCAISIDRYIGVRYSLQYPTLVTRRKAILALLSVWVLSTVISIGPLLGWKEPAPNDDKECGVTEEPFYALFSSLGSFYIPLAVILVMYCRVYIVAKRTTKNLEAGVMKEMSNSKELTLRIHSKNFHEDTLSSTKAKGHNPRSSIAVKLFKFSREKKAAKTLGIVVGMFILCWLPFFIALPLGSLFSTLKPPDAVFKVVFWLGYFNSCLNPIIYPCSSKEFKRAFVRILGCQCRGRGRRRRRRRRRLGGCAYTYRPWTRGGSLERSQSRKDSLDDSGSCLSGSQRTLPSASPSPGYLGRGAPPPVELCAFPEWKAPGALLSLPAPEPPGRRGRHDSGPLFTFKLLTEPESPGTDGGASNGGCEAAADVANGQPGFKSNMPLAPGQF

Adrenergic receptor beta = Adrenergic receptor beta (Homo sapiens, UniProt P08588+P07550+P13945); assay: Inhibitory concentration against Beta adrenergic receptor; assay type: protein assay
D(2) dopamine receptor = D(2) dopamine receptor (Homo sapiens, UniProt P14416); assay: Inhibitory concentration against Dopamine receptor D2
Chain of D(2) dopamine receptor (P14416 whole entry): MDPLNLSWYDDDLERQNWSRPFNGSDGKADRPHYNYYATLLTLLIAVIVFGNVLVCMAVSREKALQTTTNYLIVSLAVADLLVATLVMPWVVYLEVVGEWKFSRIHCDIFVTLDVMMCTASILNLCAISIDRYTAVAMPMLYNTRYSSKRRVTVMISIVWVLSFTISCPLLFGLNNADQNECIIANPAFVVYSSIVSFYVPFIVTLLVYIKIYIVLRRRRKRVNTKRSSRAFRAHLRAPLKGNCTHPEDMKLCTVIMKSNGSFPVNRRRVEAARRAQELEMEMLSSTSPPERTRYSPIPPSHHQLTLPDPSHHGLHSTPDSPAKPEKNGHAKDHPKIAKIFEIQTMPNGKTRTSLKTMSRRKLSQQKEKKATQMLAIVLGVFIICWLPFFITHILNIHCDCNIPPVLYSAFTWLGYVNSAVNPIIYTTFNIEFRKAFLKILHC

Cavia porcellus [5] = assay: Combined airway obstructive effect against LTD4 stimulated by aerosolized antigen challenge in guinea pigs after peroral administration; assay type: functional
[6] = target: GABA-A receptor; anion channel; assay: Inhibition of Gamma-aminobutyric acid receptor; assay type: protein-complex assay
Cavia porcellus [7] = assay: In vivo bronchoprotective effect against LTD4 induced bronchoconstriction in guinea pigs after intravenous administration; assay type: functional
Cavia porcellus [8] = assay: In vivo bronchoprotective effect against PAF induced bronchoconstriction in guinea pigs after intravenous administration; assay type: functional
Histamine H1 receptor = Histamine H1 receptor (Homo sapiens, UniProt P35367); assay: Inhibitory concentration against H1 receptor
Chain of Histamine H1 receptor (P35367 whole entry): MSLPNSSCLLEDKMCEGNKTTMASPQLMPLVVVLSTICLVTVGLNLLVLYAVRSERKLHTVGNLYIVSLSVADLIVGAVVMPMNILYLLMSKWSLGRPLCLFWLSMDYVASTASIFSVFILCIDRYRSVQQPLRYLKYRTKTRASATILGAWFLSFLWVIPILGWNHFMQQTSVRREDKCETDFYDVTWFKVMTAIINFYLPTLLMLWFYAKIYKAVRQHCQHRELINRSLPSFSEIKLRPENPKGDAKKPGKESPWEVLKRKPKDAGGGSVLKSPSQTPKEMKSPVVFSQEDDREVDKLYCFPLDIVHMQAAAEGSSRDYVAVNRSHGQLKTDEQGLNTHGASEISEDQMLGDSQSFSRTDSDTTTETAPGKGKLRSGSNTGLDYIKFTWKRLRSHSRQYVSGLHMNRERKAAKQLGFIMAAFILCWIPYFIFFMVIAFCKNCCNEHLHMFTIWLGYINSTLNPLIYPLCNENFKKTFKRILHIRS

[9] = target: T1, Cysteinyl leukotriene receptor 1; assay: Displacement of [3H]LTD4 from receptor in guinea pig lung membranes; assay type: cell membranes, Membrane
[10] = target: Muscarinic acetylcholine receptor; assay: Inhibitory concentration against muscarinic receptor; assay type: protein assay
Mu-type opioid receptor = Mu-type opioid receptor (Homo sapiens, UniProt P35372); assay: Inhibitory concentration against Opioid receptor mu 1
Chain of Mu-type opioid receptor (P35372 whole entry): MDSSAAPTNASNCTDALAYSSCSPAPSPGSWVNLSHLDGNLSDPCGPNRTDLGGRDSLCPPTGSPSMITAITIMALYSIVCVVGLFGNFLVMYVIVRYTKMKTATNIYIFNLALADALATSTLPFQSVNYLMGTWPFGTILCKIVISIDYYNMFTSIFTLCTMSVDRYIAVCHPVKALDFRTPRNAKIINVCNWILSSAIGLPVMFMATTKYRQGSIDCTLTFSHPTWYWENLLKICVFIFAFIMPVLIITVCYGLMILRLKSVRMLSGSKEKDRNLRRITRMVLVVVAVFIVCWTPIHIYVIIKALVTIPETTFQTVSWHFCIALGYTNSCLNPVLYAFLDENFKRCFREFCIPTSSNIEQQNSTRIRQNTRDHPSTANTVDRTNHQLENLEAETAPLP

[11] = target: T4, Adrenergic receptor alpha-2 (Homo sapiens, UniProt P08913+P18825+P18089); assay: Inhibitory concentration against Alpha-2 adrenergic receptor; assay type: protein assay
T4 sequence (P08913 whole entry): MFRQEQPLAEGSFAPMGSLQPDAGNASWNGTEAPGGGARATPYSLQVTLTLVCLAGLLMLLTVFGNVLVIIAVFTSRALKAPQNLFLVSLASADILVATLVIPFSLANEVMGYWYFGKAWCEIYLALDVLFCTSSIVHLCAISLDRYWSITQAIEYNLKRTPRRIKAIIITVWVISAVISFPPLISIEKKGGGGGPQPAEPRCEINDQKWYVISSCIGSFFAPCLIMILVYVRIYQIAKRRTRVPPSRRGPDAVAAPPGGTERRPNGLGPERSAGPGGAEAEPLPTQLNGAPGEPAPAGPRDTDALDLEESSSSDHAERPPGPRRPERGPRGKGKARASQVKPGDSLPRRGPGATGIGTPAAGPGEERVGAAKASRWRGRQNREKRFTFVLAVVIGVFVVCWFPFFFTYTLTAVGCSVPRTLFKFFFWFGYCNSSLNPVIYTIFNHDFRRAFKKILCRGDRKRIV
T4 sequence (P18825 whole entry): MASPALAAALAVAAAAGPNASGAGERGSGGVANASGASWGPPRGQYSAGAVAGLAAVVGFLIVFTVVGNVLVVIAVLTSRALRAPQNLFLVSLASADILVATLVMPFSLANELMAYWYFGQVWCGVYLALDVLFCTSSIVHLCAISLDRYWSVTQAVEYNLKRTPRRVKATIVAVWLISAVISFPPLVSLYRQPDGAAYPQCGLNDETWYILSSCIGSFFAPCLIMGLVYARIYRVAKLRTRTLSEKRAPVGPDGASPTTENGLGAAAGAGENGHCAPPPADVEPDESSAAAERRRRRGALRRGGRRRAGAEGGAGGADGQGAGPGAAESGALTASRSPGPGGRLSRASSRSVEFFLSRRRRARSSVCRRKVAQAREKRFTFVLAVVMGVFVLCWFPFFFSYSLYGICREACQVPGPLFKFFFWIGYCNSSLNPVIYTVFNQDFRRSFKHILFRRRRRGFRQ
T4 sequence (P18089 whole entry): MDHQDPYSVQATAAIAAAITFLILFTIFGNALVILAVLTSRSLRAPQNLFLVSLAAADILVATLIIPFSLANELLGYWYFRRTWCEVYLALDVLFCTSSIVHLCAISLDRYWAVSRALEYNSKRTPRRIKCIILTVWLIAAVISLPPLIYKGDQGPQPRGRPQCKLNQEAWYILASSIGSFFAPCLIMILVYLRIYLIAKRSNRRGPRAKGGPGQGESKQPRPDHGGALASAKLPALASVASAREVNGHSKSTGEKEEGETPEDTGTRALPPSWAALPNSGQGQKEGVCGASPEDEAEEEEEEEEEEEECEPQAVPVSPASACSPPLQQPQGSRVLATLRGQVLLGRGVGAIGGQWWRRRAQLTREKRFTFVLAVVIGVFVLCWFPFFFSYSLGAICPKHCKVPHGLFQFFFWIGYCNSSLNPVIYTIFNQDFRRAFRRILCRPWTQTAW

Cavia porcellus [12] = assay: In vivo bronchoprotective effect against […] induced bronchoconstriction in guinea pigs after intravenous administration; assay type: functional

Row | Compound | Ki [1] [µM] | IC50 [2] [µM] | IC50 [3] [µM] | IC50 (Adenosine receptor A1) [µM] | IC50 [4] [µM] | IC50 (Adrenergic receptor beta) [µM] | IC50 (D(2) dopamine receptor) [µM] | IC50 [6] [µM] | IC50 (Histamine H1 receptor) [µM] | Ki [9] [µM] | IC50 [10] [µM] | IC50 (Mu-type opioid receptor) [µM] | IC50 [11] [µM] | ED50 (Cavia porcellus [5]) [mg/kg] | ED50 (Cavia porcellus [7]) [mg/kg] | ED50 (Cavia porcellus [8]) [mg/kg] | ED50 (Cavia porcellus [12]) [mg/kg]
1 | Cc1nc2cnccc2n1-c1ccc(OCc2cccc(/C=C/c3nc4cc(F)ccc4s3)c2)cc1 | 0.034 | > 10 | > 10 | > 10 | > 10 | > 10 | > 10 | > 10 | > 10 |  | > 10 | > 10 | > 10 | 1.8 | 0.46 |  | 0.16
2 | COc1cc(C(=O)NS(=O)(=O)c2ccccc2C)ccc1Cc1cn(C)c2ccc(NC(=O)OC3CCCC3)cc12 [ZAFIRLUKAST] |  |  |  | > 10 | > 10 | > 10 | > 10 | > 10 |  |  |  | > 10 |  | 3.5 | 0.21 |  | 

Second part, led by results:

Row | Ki [1] [µM] | IC50 [2] [µM] | IC50 [3] [µM] | IC50 (Adenosine receptor A1) [µM] | IC50 [4] [µM] | IC50 (Adrenergic receptor beta) [µM] | IC50 (D(2) dopamine receptor) [µM] | IC50 [6] [µM] | IC50 (Histamine H1 receptor) [µM] | Ki [9] [µM] | IC50 [10] [µM] | IC50 (Mu-type opioid receptor) [µM] | IC50 [11] [µM] | Compound | ED50 (Cavia porcellus [5]) [mg/kg] | ED50 (Cavia porcellus [7]) [mg/kg] | ED50 (Cavia porcellus [8]) [mg/kg] | ED50 (Cavia porcellus [12]) [mg/kg]
3 | 0.073 |  |  |  |  |  |  |  |  |  |  |  |  | Cc1nc2cnccc2n1-c1ccc(OCc2cccc(/C=C/c3ccc4ccccc4n3)c2)cc1 |  |  |  | 
4 |  | > 10 | > 10 | > 10 | > 10 | > 10 | > 10 | > 10 | > 10 | 0.02 | > 10 | > 10 | > 10 | Cc1nc2cnccc2n1-c1ccc(OCc2cccc(/C=C/c3ccc4ccc(Cl)cc4n3)c2)cc1 | 1.7 | 0.27 | 0.26 | 
5 | > 30 |  |  |  |  |  |  |  |  |  |  |  |  | CCOC(=O)C1=C(c2ccc(-n3c(C)nc4cnccc43)cc2)NC(C)=C(C(=O)Nc2ccccn2)C1c1ccccc1Cl (configuration not stated) | 1.9 |  |  | 0.33
